Biological target: Dihydroorotate dehydrogenase (quinone), mitochondrial (Homo sapiens, UniProt Q02127)
Test: Method for Testing Activities of Compounds at Enzyme Level: Principles of activity test at enzyme level: firstly, dihydroorotate (DHO) is oxidatively dehydrogenated by DHODH to form orotic acid (Orotate, OA), accompanied by reduction of Flavin mononucleotide (FMN) into reduced flavin mononucleotide (FMNH2) by accepting 2H+ and 2e−, then coenzyme Q (CoQ) as hydrogen acceptor accepting electron and proton from FMNH2 is reduced into reduced coenzyme Q (CoQH2), reduced coenzyme Q transfers electrons to a chromogenic substrate, […] (DCIP), and finally DCIP was reduced. […] The degree to which the substrate DHO is oxidized can be judged based on the degree of decrease in absorbance. The degree of oxidation of the substrate DHO per unit time is the initial rate of the enzymatic reaction. […] Substrate DHO was added to start the reaction with a DHO final concentration of 500 μM. The absorbance was read at 600 nm using a BioTek microplate reader and read every 30 s for 6 min. […] For calculating IC50 of a compound, Origin 8.0 was used to test the inhibition rate at least 8 concentrations.
Assay type: single protein

Chain of Dihydroorotate dehydrogenase (quinone), mitochondrial (Q02127 whole entry): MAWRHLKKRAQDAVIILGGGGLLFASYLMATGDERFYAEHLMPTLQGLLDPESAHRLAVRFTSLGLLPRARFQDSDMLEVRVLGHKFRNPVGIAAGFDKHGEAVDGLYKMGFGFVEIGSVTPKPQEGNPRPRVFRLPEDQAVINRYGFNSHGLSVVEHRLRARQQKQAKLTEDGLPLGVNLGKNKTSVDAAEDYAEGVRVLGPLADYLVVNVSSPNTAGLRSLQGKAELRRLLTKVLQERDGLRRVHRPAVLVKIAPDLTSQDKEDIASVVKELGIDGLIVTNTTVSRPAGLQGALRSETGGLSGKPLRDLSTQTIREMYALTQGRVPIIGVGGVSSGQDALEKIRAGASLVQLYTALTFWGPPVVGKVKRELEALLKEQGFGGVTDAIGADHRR

| IC50 | SMILES |
| --- | --- |
| > 50 µM | O=C(OCCc1ccccc1)c1ccccc1/C=N/Nc1nc(-c2ccccc2Cl)cs1 |
| 0.0355 µM | Cc1sc(N(C)/N=C/c2ccccc2C(=O)O)nc1-c1ccccc1Cl |

| SMILES | IC50 |
| --- | --- |
| CN(/N=C/c1ccccc1C(=O)OCCc1ccccc1)c1nc(-c2ccccc2Cl)cs1 | > 50 µM |

From ChEMBL document CHEMBL5728275 (2021)
